Test results from the supplement of paper PMC10307832.

What was measured:
Assay in all cases: relative viability (nuclei count vs DMSO), 5 days (fraction); higher = more cells survive
[1] = compound: O=C(CCCCCCNC(=O)c1cnc(N(c2ccccc2)c2ccccc2)nc1)NO [Ricolinostat] + CS(=O)(=O)N1CCN(Cc2cc3nc(-c4cccc5[nH]ncc45)nc(N4CCOCC4)c3s2)CC1 [Pictilisib] (partner 1 µM)
How it was run: (§1)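 Lung cancer cell lines, seeded in 1536-well plates, were treated the following day by pin tool with a single drug or with five library-drug doses (not always all listed) in √10 steps on top of a fixed anchor-drug dose. Cells were fixed and nuclei stained in one step after 5 days, and nuclei were counted. Relative viability is the nuclei count for treated wells divided by that for vehicle wells, reported as medians of duplicate plates.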

TGX 221 + Olaparib = compound: CC1=CN2C(=O)C=C(N=C2C(=C1)C(C)NC3=CC=CC=C3)N4CCOCC4 [TGX 221] + O=C(c1cc(Cc2n[nH]c(=O)c3ccccc23)ccc1F)N1CCN(C(=O)C2CC2)CC1 [Olaparib] (partner 8 µM)
How it was run: as §1

TGX 221 + OSI-027 = compound: CC1=CN2C(=O)C=C(N=C2C(=C1)C(C)NC3=CC=CC=C3)N4CCOCC4 [TGX 221] + COc1cccc2cc(-c3nc([C@H]4CC[C@H](C(=O)O)CC4)n4ncnc(N)c34)[nH]c12 [OSI-027] (partner 0.5 µM)
How it was run: as §1

Ricolinostat + Olaparib = compound: O=C(CCCCCCNC(=O)c1cnc(N(c2ccccc2)c2ccccc2)nc1)NO [Ricolinostat] + O=C(c1cc(Cc2n[nH]c(=O)c3ccccc23)ccc1F)N1CCN(C(=O)C2CC2)CC1 [Olaparib] (partner 8 µM)
How it was run: as §1

Cell Line | relative viability ([1]; first compound 0.08 µM) | relative viability ([1]; first compound 0.253 µM) | relative viability ([1]; first compound 0.8 µM) | relative viability ([1]; first compound 2.53 µM) | relative viability (TGX 221 + Olaparib; first compound 0.08 µM) | relative viability (TGX 221 + Olaparib; first compound 0.253 µM) | relative viability (TGX 221 + Olaparib; first compound 0.8 µM) | relative viability (TGX 221 + Olaparib; first compound 2.53 µM) | relative viability (TGX 221 + Olaparib; first compound 8 µM) | relative viability (TGX 221 + OSI-027; first compound 0.08 µM) | relative viability (TGX 221 + OSI-027; first compound 0.253 µM) | relative viability (TGX 221 + OSI-027; first compound 0.8 µM) | relative viability (TGX 221 + OSI-027; first compound 2.53 µM) | relative viability (TGX 221 + OSI-027; first compound 8 µM) | relative viability (Ricolinostat + Olaparib; first compound 0.08 µM) | relative viability (Ricolinostat + Olaparib; first compound 0.253 µM) | relative viability (Ricolinostat + Olaparib; first compound 0.8 µM) | relative viability (Ricolinostat + Olaparib; first compound 2.53 µM)
H3255 | 0.387 | 0.418 | 0.484 | 0.484 | 0.508 | 0.536 | 0.561 | 0.547 | 0.499 | 0.535 | 0.593 | 0.506 | 0.539 | 0.571 | 0.543 | 0.529 | 0.525 | 0.506
EPLC-272H | – | 0.343 | 0.285 | 0.355 | 0.786 | 0.582 | 0.845 | 0.483 | 0.504 | 0.273 | 0.28 | 0.244 | 0.293 | 0.316 | 0.866 | 0.938 | 0.612 | 0.309
NCI-H1734 | 0.371 | 0.467 | 0.495 | 0.402 | 0.557 | 0.554 | 0.616 | 0.576 | 0.523 | 0.57 | 0.579 | 0.621 | 0.527 | 0.532 | 0.61 | 0.642 | 0.601 | 0.324
NCI-H2087 | 0.806 | 0.828 | 0.867 | 0.87 | 0.646 | 0.66 | 0.501 | 0.683 | 0.598 | 0.579 | 0.481 | 0.574 | 0.465 | 0.622 | 0.502 | 0.588 | 0.671 | 0.357
NCI-H522 | – | – | – | – | 0.563 | 0.628 | 0.729 | 0.616 | 0.645 | 0.606 | 0.739 | 0.704 | 0.789 | 0.641 | 0.61 | 0.651 | 0.606 | 0.676
NCI-H1666 | 0.445 | 0.52 | 0.378 | 0.305 | 0.751 | 0.748 | 0.754 | 0.727 | 0.774 | 0.836 | 0.81 | 0.831 | 0.819 | 0.887 | 0.708 | 0.709 | 0.695 | 0.829
NCI-H1915 | 0.852 | 0.928 | 0.869 | 0.729 | 0.241 | 0.267 | 0.284 | 0.232 | 0.251 | 0.575 | 0.601 | 0.63 | 0.472 | 0.619 | 0.255 | 0.237 | 0.248 | 0.201
